This note sets out measurements from patent US20210401776A1, “METHOD OF TREATING […] SYNDROMES USING FENFLURAMINE ENANTIOMERS” (ZOGENIX INTERNATIONAL LIMITED, priority 2018, published 2021).

For assay [1], the system named is homozygous scn1Lab−/− mutants. The experiment in a line: zebrafish locomotor assay (total distance in large movements, lardist). Format: in vivo, zebrafish (Danio rerio). The settings on record: scn1Lab−/− mutants; for reduction in seizure behavior: fixed concentration, FIG. 3. The text has this: (Baraban et al, 2013). Additional phenotypes of these mutants include: abnormal optokinetic response (OKR; 5 dpf); darkened pigmentation; death by 14 dpf; spontaneous seizure-like activity; abnormal (forebrain electrographic activity (3-7 dpf); seizure activity; lower levels of serotonin in scn1lab^−/− head homogenates at 7 dpf; zebrafish express orthologs of human serotonin (5HT) receptor subtypes at 5 dpf; nighttime hyperactivity (5 dpf); in open field-increased thigmotaxis. decreased movement (at 5 dpf); no differences in GABAergic neurons compared to wild type (5 dpf); 5-HT2a (hitr2aa/b) and S-HT2c; (htr2c11) orthologs expressed in larval heads in wild-type and scn1lab−/− mutants and in adult wild-type brains.
To assay the locomotor activity of homozygous scn1Lab−/− mutants and control WT scn1Lab+/+, zebrafish larvae were placed one larva per well in a 96-well plate in 100 μL of embryo medium from 4 to 8 days post-fertilization (dpf). Each day the larvae are tracked in an automated tracking device (ZebraBox™ apparatus; Viewpoint, Lyon, France) for 10 min after 30 min habituation (100-second integration interval). All recordings were performed at the same time during daytime period. The total distance in large movements was recorded and quantified using ZebraLab™ software (Viewpoint, Lyon, France). Data was pooled together from at least three independent experiments with at least 24 larvae per condition.
Scn1Lab^−/− mutants and WT scn1Lab+/+ larvae are arrayed in the same plate and treated at 6 days post fertilization (dpf) with the test compounds (25 μM), or VHC in individual wells of a 96-well plate. After incubation at 28° C. on a 14/10 hour light/dark cycle and 30-min chamber habituation 6 and 7 dpf larvae are tracked for locomotor activity for 10 min (100-second integration interval) under dark conditions. An incubation time of 1.5 hours is further referred to as short treatment (6 dpf). Furthermore, these larvae are analyzed after more than 22 hours incubation (7 dpf), i.e. long treatment. The total locomotor activity is quantified using the parameter lardist and plotted in cm. Data for each compound is pooled together from multiple independent experiments with at least 9 larvae per treatment condition.

Assay [2] deals with homozygous scn1Lab−/− mutants. Kind of assay: epileptiform activity, open-field recordings in larval forebrain (LFP assay). In kind it is in vivo, zebrafish (Danio rerio). To be noted: for LFP Assay: Table 1, 25, 59 and 100 μM, oral via embryo medium.
For assay [3], the system named is dizocilpine-treated mice. Kind of assay: spontaneous alternation in the Y-maze, dizocilpine-induced amnesia model. Format: in vivo, Male Swiss OF-1 mice.
Assay [4] deals with dizocilpine-treated mice. Kind of assay: step-through passive avoidance, dizocilpine-induced amnesia model. Format: in vivo, Male Swiss OF-1 mice.

Entries after “also recorded” stand apart in the source; their conditions may differ.

Consider `CC(N)Cc1cccc(C(F)(F)F)c1` (single isomer, unassigned; (+)) [(+)-Norfenfluramine], for which, in assay [1], the “antiseizure activity in the zebrafish locomotor assay” value is on record as “more efficacious than (−)-norfenfluramine” and the “reduction in seizure behavior” value is 80%. Besides, the “LFP Assay” value in assay [2] is given as “Less effective than (+)-FFA;”.
Turning to `CC(N)Cc1cccc(C(F)(F)F)c1` (single isomer, unassigned; (-)) [(−)-Norfenfluramine], the “reduction in seizure behavior” value in assay [1] was found to be 45%. The “anti-epileptiform activity (frequency and cumulative duration of epileptiform events over 10 minutes)” value in assay [2] (50 micromolar, FIGS. 4 and 5) is “less efficacious than (+)- and (−)-fenfluramine; also recorded: comparable”. The “LFP Assay” value in assay [2] is recorded as “Inactive”.
Take `Cl.O=C(OCCN1CCOCC1)C1(c2ccccc2)CCCCC1` [PRE-084, 2-(4-Morpholinethyl)-1-phenylcyclohexanecarboxylate hydrochloride]: the “PP (%)” value with dizocilpine-treated mice [3] (Table 2 Y-Maze, drug alone 0.1 mg/kg IP) is listed as 6.6 ± 12.8%; in the assay with dizocilpine-treated mice [3] (Table 2 Y-Maze, drug alone 0.3 mg/kg IP), 40.5 ± 9.2 ^1%; in the assay on dizocilpine-treated mice [3] (Table 3 Y-Maze, drug alone 0.1 mg/kg IP) it was 15.4 ± 10.9%; in the assay on dizocilpine-treated mice [3] (Table 3 Y-Maze, drug alone 0.3 mg/kg IP), 32.6 ± 8.9 ^1%; in the assay on dizocilpine-treated mice [3] (Table 4 Y Maze, drug alone 0.1 mg/kg IP), 17.2 ± 13.8%; in the assay with dizocilpine-treated mice [3] (Table 4 Y Maze, drug alone 0.3 mg/kg IP), 27.0 ± 9.5 ^1%. Besides, the “PP (%)” value with dizocilpine-treated mice [4] (Table 2 StepThrough/Passive Avoidance, drug alone 0.1 mg/kg IP) was 4.9 ± 9.9%; in the assay on dizocilpine-treated mice [4] (Table 2 StepThrough/Passive Avoidance, drug alone 0.3 mg/kg IP) it was 34.6 ± 10.5 ^3%; in the assay on dizocilpine-treated mice [4] (Table 3 StepThrough/PassiveAvoidance, drug alone 0.1 mg/kg IP) it was 7.6 ± 12.4%; in the assay with dizocilpine-treated mice [4] (Table 3 StepThrough/PassiveAvoidance, drug alone 0.3 mg/kg IP) it was 25.2 ± 9.8 ^3%; in the assay with dizocilpine-treated mice [4] (Table 4 StepThrough/PassiveAvoidance, drug alone 0.1 mg/kg IP), 8.8 ± 11.0%; in the assay on dizocilpine-treated mice [4] (Table 4 StepThrough/PassiveAvoidance, drug alone 0.3 mg/kg IP), 38.9 ± 10.4 ^3%.
Take Dehydroepiandrosterone sulfate [DHEAS]: the “PP (%)” value in the assay on dizocilpine-treated mice [3] (Table 5 YMT, DHEAS alone 5 mg/kg sc) was 18.4 ± 9.7%; with dizocilpine-treated mice [3] (Table 5 YMT, DHEAS alone 10 mg/kg sc) it was 29.8 ± 7.4%; with dizocilpine-treated mice [3] (Table 5 YMT, DHEAS alone 20 mg/kg sc), 57.9 ± 11.0^1%; in the assay on dizocilpine-treated mice [4] (Table 5 STPA, DHEAS alone 5 mg/kg sc), 19.1 ± 10.7%; in the assay with dizocilpine-treated mice [4] (Table 5 STPA, DHEAS alone 10 mg/kg sc), 47.2 ± 12.8%; in the assay with dizocilpine-treated mice [4] (Table 5 STPA, DHEAS alone 20 mg/kg sc), 40.3 ± 13.3^4%.
Consider pregnenolone sulfate [PREGS], for which the “PP (%)” value in the assay on dizocilpine-treated mice [3] (Table 6 YMT, PREGS alone 5 mg/kg sc) is given as 3.5 ± 17.6%; in the assay with dizocilpine-treated mice [3] (Table 6 YMT, PREGS alone 10 mg/kg sc) it was 52.4 ± 12.2%; in the assay with dizocilpine-treated mice [3] (Table 6 YMT, PREGS alone 20 mg/kg sc) it was 72.1 ± 12.4 ^1%; in the assay on dizocilpine-treated mice [4] (Table 6 STPA, PREGS alone 5 mg/kg sc), 4.4 ± 16.3%; in the assay with dizocilpine-treated mice [4] (Table 6 STPA, PREGS alone 10 mg/kg sc), 21.0 ± 14.6%; with dizocilpine-treated mice [4] (Table 6 STPA, PREGS alone 20 mg/kg sc), 26.0 ± 19.1 ^4%.
